Consider four compounds from US8470835B2, “Pyrimidinecarboxamide derivatives as inhibitors of Syk kinase” (Glaxo Group Limited, priority 2009, dated 2013).

The test system of data set [1] is allergic rhinitis. To be noted: phase II; cited from earlier work.
The test system of data set [2] is allergic rhinitis. Conditions: dosed intranasally; cited from earlier work.
For data set [3], the system named is patients with relapsed or refractory B-Cell non-Hodgkin's lymphoma (NHL). To be noted: cited from earlier work.
Data set [4] concerns the target Recombinant human VEGFR2 (KDR) (Homo sapiens (Human), UniProt P35968). As to the kind of experiment: VEGFR2 (KDR) enzyme assay, TR-FRET kinase assay (3). It counts as biochemical. Conditions: read-out: Vegfr enzyme assay (3) IC50.
Procedure: VEGFR2 (KDR) Enzyme Assay—Time-resolved Fluorescence Resonance Energy Transfer Kinase Assay
Recombinant human VEGFR2 (KDR) intracellular domain (including the entire kinase domain) was expressed as a GST-6His-tagged protein*. The activity of VEGFR2 was assessed using a time-resolved fluorescence resonance energy transfer (TR-FRET) assay. Test compounds at the desired concentrations in 100% DMSO or 100% DMSO vehicle were added in 0.1 μL to a Greiner low-volume, 384-well, black plate (#784076). The plate was centrifuged minimally at 1000 RPM for 1 min. to force all of the liquid to the bottom of the wells prior to addition of any assay reagents. *Purification of Recombinant GST-6His-VEGFR2
VEGFR2 (100 nM typically) was activated at room temperature for 20 min. in the presence of 100 mM HEPES, pH 7.5, 10 mM MgCl2, 100 μM ATP, 300 μM DTT, and 0.1 mg/mL BSA. […] The solution of activated VEGFR2 was diluted 100-fold in 200 mM HEPES, pH 7.5, 0.2 mg/mL BSA, and 0.6 mM DTT. The VEGFR2 catalyzed reaction was initiated by the addition of 5 μL of the diluted, activated VEGFR2. […] After incubation for 10 min. at room temperature, phosphorylation of the biotinylated peptide substrate was measured as a ratio of specific 665 nm energy transfer signal to reference europium 615 nm signal using a Viewlux 1430 ultraHTS Microplate Imager (PerkinElmer, Turku, Finland).
For the next data set, the system named is Ramos B cells. As to the kind of experiment: Ramos pErk assay (4). It is filed as cell-based. To be noted: Homo sapiens, anti-IgM stimulated.
For a further data set, the system named is Whole blood B cells. As to the kind of experiment: CD69 whole blood assay (6). It counts as cell-based. Conditions: Homo sapiens, B-cell, all data points. The method, then:
6. CD69 Whole Blood Assay
Whole blood B cells are stimulated ex-vivo using anti-IgM. […] The subsequent autophosphorylation of Syk leads to initiation of a signalling cascade resulting in B cell activation as indicated by expression of the activation marker CD69 on the cell surface. CD20/CD69+ve whole blood B cells are detected by flow cytometry.
Stimulation of Whole Blood B Cells with Anti-IqM
100 μl heparinised human blood was added to a 5 ml polypropylene tube containing 1 μl appropriately diluted compound solution and incubated for 30 min at 37° C. with 5% CO2. B cells were stimulated with 10 μl Fab′2 fragments of goat anti-human IgM (67.5 μg/ml final) for a further 3.5 h under the conditions previously described. The red blood cells were lysed and all other cells fixed by the addition of 2 ml Lyse/Fix buffer for 10 min at room temperature.
The cells were stained using a cocktail of mouse anti-human CD20 FITC and mouse anti-human CD69 APC conjugated antibodies. CD20/CD69+ve B cells present in the sample were detected by flow cytometry.
Compound dilutions were prepared using the Biomek 2000 automated robotic pipetting system.

For another data set, the system named is B lymphoma (BKS-2). Conditions: mouse, in vivo; cited from earlier work.

pIC50: −log10 of the molar value. Read-outs that look alike come from different tables or passages of the source.

Recombinant human VEGFR2 (KDR), sequence (P35968 786-1356): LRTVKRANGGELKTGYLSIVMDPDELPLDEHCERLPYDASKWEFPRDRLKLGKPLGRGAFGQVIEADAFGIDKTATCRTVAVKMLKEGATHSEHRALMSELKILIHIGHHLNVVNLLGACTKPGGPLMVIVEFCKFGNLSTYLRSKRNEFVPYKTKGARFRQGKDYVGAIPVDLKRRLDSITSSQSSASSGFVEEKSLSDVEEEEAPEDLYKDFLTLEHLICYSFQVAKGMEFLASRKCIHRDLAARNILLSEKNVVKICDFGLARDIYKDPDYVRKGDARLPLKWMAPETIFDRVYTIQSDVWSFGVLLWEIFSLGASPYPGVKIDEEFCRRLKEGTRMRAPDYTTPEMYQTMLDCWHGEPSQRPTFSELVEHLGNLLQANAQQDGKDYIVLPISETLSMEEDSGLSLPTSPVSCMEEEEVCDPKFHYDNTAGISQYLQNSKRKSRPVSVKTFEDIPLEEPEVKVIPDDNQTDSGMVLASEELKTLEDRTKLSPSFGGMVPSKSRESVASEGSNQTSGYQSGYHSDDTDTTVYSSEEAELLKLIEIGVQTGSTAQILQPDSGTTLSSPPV
Procedure for Ramos B cells: Ramos B cells (human B cells of Burkitt's Lymphoma) are stimulated using anti-IgM. […] As a result Erk is phosphorylated and following cell lysis is detected by an immune capture assay.
Stimulation of Ramos Cells with Anti-IqM
Cells were plated at a density of 5×10^5/well in a volume of 25 μl assay medium (RPMI containing 10% heat inactivated foetal calf serum, 1% L-glutamine and 1% Penicillin/Streptomycin) in 96 v-well polypropylene plates. […] Cells are lysed by the addition of 55 μL 2×RIPA lysis buffer for 2 h at 4° C.
50 μl cell lysate was transferred to a 96 well MSD plate coated with anti-pErk1/2 (Thr/Thy: 202/204; 185/187) capture antibody and incubated for 16 hours at 4° C. The plate was washed and an anti-pErk detection antibody added (25 μl/well) for 2 h at room temperature. This was removed, 150 μL MSD read buffer added and the resultant electrochemiluminescence signal measured.

Turning to `Oc1cccc(Nc2ncc(F)c(Nc3cccc(O)c3)n2)c1` [Example R112], the efficacy versus placebo entry in the data set on allergic rhinitis [1] is “lack of efficacy versus placebo”. Besides, in the data set on allergic rhinitis [2], the “change in PGD2” value is recorded as “statistically significant decrease” and the clinical safety entry is given as “safe across a range of indicators”.

As for `COc1cc(Nc2ncc(F)c(Nc3ccc4c(n3)N(COP(=O)(O)O)C(=O)C(C)(C)O4)n2)cc(OC)c1OC` [Example R788, fostamatinib disodium], the clinical efficacy entry in data set [3] (patients with DLBCL and CLL/SLL) is on record as “therapeutic benefit”. In addition, in data set [3] (relapsed or refractory B-Cell NHL), the tolerability in patients entry is recorded as “well-tolerated”.

On to `Cc1cccc(Nc2nc(N[C@@H]3CCCC[C@@H]3N)ncc2C(N)=O)c1` [Reference example 1], for which the pIC50 was 5.20 in data set [4], 7.49 with Ramos B cells (read-out: RAMOS pErk assay (4) IC50) and 6.30 with Whole blood B cells (read-out: CD69 whole blood assay (6) IC50). The IC50 was 31.6 nM in the data set on Ramos B cells (read-out: RAMOS pErk assay (4) pIC50 (converted)) and 501 nM in the data set with Whole blood B cells (read-out: CD69 whole blood assay (6) pIC50 (converted)).

Consider `COc1cc(/C=C/C(=O)CC(=O)/C=C/c2ccc(O)c(OC)c2)ccc1O` [curcumin], for which the “tumour burden as measured by the total splenocyte number” value in the data set with B lymphoma (BKS-2) was “significant reduction of tumour burden”.
